Data reported in PubChem BioAssay (NCI).
Values joined by “and” are separate entries in the source; they are usually repeats but may differ in a detail not shown here. Equal entries are not always repeated.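 Test compounds were applied to cells in 96-well plates for 48 hours at 5 doses. Here, GI50 denotes the concentration required for 50% inhibition of growth. TGI is the concentration that stops growth completely.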

What was measured:
Assay in all cases: growth of human tumour cells (NCI), 48 h
[1] = system: DLD-1 colon
[2] = system: UACC-62 melanoma
[3] = system: HL-60(TB) leukemia
[4] = system: KM20L2 colon
[5] = system: OVCAR-5 ovarian
[6] = system: LOX IMVI melanoma
[7] = system: NCI-H226 lung
[8] = system: RPMI-8226 leukemia
[9] = system: NCI-H522 lung
[10] = system: SW-620 colon

SMILES | GI50 [1] | TGI [1] | GI50 [2] | TGI [2] | GI50 [3] | TGI [3] | GI50 [4] | TGI [4] | GI50 [5] | TGI [5] | GI50 [6] | TGI [6] | GI50 [7] | TGI [7] | GI50 [8] | TGI [8] | GI50 [9] | TGI [9] | GI50 [10] | TGI [10]
CC(=O)[C@H]1CCC2[C@@H]3CC=C4C[C@@H]([O-])CC[C@]4(C)C3CC[C@@]21C.CC(=O)[C@H]1CCC2[C@@H]3CC=C4C[C@@H]([O-])CC[C@]4(C)C3CC[C@@]21C.CC(=O)[CH-]C(=O)c1ccccc1.CC(=O)[CH-]C(=O)c1ccccc1.Cl.[Ti+4] (some centres not stated) | 27.4 µM | > 100 µM | 15.8 µM | 56.9 µM | 4.64 µM | > 100 µM | 10.8 µM | > 100 µM | > 100 µM | > 100 µM | 29 µM | > 100 µM | 16.1 µM | 44.9 µM | 15 µM | > 100 µM | 20.3 µM | 66.5 µM | 39 µM | > 100 µM
Clc1cccc(C2N3CCCCC3[C@@H]3c4[nH]c5ccccc5c4CCN23)c1 (some centres not stated) | – | > 100 µM | – | 30.7 µM | – | 44.1 µM | – | > 100 µM | – | 55.5 µM | – | – | – | – | – | 81.8 µM | – | – | – | > 100 µM
CC(=O)[CH-]C(=O)c1ccccc1.CC(=O)[CH-]C(=O)c1ccccc1.O=S(=O)([O-])c1cc([O-])c2c([O-])cc(S(=O)(=O)[O-])cc2c1.[Na+].[Zr+4] | – | – | > 100 µM | > 100 µM | > 100 µM | > 100 µM | > 100 µM | > 100 µM | > 100 µM | > 100 µM | > 100 µM | > 100 µM | 30.4 µM | 90.9 µM | > 100 µM | > 100 µM | > 100 µM | > 100 µM | > 100 µM | > 100 µM
O=c1c(Cl)c(Cl)cnn1CCCl | – | 3.29 µM | – | 8.25 µM | – | 5.58 µM | – | 27.2 µM | – | 34.5 µM | – | 14.3 µM | – | 52.4 µM | – | > 47.1 µM | – | 1.12 µM | – | 3.89 µM
COc1ccc(S(=O)(=O)N(CC(=O)O)c2ccccc2)cc1 | – | > 100 µM | – | > 100 µM | – | > 100 µM | – | > 100 µM | – | > 100 µM | – | > 100 µM | – | – | – | > 100 µM | – | > 100 µM | – | > 100 µM
Nc1c(Cl)ncnc1NCCCCCCCCCCCCNc1ncnc(Cl)c1N | – | > 100 µM | – | 13.6 µM | – | 2.12 µM | – | > 100 µM | – | > 100 µM | – | 6.52 µM | – | – | – | 5.74 µM | – | – | – | 54 µM
Cc1cccc(C)c1N1C(=O)C(=O)C(c2nc3ccccc3s2)/C(=N\N)C1=O (configuration not stated) | – | > 100 µM | – | > 100 µM | – | > 100 µM | – | > 100 µM | – | > 100 µM | – | > 100 µM | – | > 100 µM | – | > 100 µM | – | > 100 µM | – | > 100 µM
O=C(/C=C/c1cccc([N+](=O)[O-])c1)c1ccc([N+](=O)[O-])cc1 | – | > 100 µM | – | > 100 µM | – | > 100 µM | – | > 100 µM | – | > 100 µM | – | > 100 µM | – | > 100 µM | – | – | – | > 100 µM | – | > 100 µM
CC(C)CCCCCCCCCCCCC(=O)NCC(=O)NC1C(O)C(O)C(Nc2ncnc3nc[nH]c23)OC1C(O)CO (configuration not stated) | 0.0104 µM | 3.83 µM | < 1e-05 µM | – | – | – | 0.005 µM | 0.0222 µM and 0.0138 µM | 0.005 µM | 0.0171 µM and 0.0695 µM | – | – | – | – | – | – | – | – | 0.000756 µM and 0.005 µM | –
COC(=O)[C@@H]1Cc2c([nH]c3ccccc23)[C@H](c2ccccc2)N1 | – | > 100 µM | – | > 100 µM | – | > 100 µM | – | > 100 µM | – | > 100 µM | – | > 100 µM | – | > 100 µM | – | – | – | 53.1 µM | – | > 100 µM
COC1OC2COC(C)(C)OC2C(OC(C)=O)C1NC(=O)N(CCCl)N=O (configuration not stated) | – | > 100 µM | – | > 100 µM | – | 53.3 µM | – | > 100 µM | – | > 100 µM | – | > 100 µM | – | > 100 µM | – | – | – | 67.1 µM | – | > 100 µM
O=C(Nc1ccc(Cl)cc1Cl)OC(Cn1cncn1)c1ccc(Cl)cc1Cl (configuration not stated) | – | 35 µM | – | 28.1 µM | – | > 100 µM | – | 30.3 µM | – | – | – | 29.9 µM | – | 39 µM | – | > 100 µM | – | 34.8 µM | – | 30.4 µM
CCNC(=O)OCc1c(COC(=O)NCC)c(-c2ccc(Cl)c(Cl)c2)n2c1CCC2 | – | 72.3 µM | – | 23.1 µM | – | 22.2 µM | – | 68.3 µM | – | 59.1 µM | – | – | – | 7.85 µM | – | 27.9 µM | – | 19.8 µM | – | 68.8 µM
CN(/N=C\c1ccnc2ccccc12)c1ccc([N+](=O)[O-])cc1 | – | – | – | > 100 µM | – | > 100 µM | – | > 100 µM | – | > 100 µM | – | > 100 µM | – | > 100 µM | – | 65.4 µM | – | – | – | > 100 µM
N#CC(C(=O)/C(=N\NC(N)=O)C(C#N)c1ccccc1)c1ccccc1 (configuration not stated) | – | > 100 µM | – | > 100 µM | – | > 100 µM | – | > 100 µM | – | > 100 µM | – | – | – | > 100 µM | – | > 100 µM | – | > 100 µM | – | > 100 µM
N/N=C(/Cc1nc2ccc(C(=O)c3ccccc3)cc2[nH]c1=O)C(=O)Nc1ccc([N+](=O)[O-])cc1[N+](=O)[O-] | – | – | – | > 100 µM | – | – | – | > 100 µM | > 100 µM | > 100 µM | > 100 µM | > 100 µM | > 100 µM | > 100 µM | > 100 µM | > 100 µM | > 100 µM | > 100 µM | – | > 100 µM
O=C1/C(=C/c2ccc(Cl)cc2)CNC/C1=C\c1ccc(Cl)cc1 | – | 6.78 µM | – | > 19.9 µM | 2.42 µM and 9.41 µM | – | – | – | – | 13.4 µM | – | 4.02 µM | – | – | – | 0.722 µM | – | 4.4 µM and 4.75 µM | 0.381 µM | –
CC(=O)[CH-]C(=O)c1ccccc1.CC(=O)[CH-]C(=O)c1ccccc1.CC(=O)[CH-]C(=O)c1ccccc1.[Nd+3].[OH3+] | 25 µM | > 100 µM | 45.5 µM | > 100 µM | 30.1 µM | > 100 µM | 38 µM | > 100 µM | 93.1 µM | > 100 µM | – | – | > 100 µM | > 100 µM | 46.6 µM | > 100 µM | 12.1 µM | > 100 µM | 55.2 µM | > 100 µM
CCNC(=O)Oc1ccc(/C(=C(/C)Cc2ccc(OC)cc2)c2ccc(OCCN(CC)CC)cc2)cc1 | – | – | 1.86 µM | 3.38 µM | 1.94 µM | 4.56 µM | – | – | 3.42 µM | 12.8 µM | 1.66 µM | 3.22 µM | 2.99 µM | 12.6 µM | 1.99 µM | 4.5 µM | 2.16 µM | 4.17 µM | 1.81 µM | 3.46 µM
